Data from ChEMBL document CHEMBL5543165, “Recent Progress in DNA Damage Response-Targeting PROTAC Degraders” (J Med Chem, 2024).
One block for each compound: values may come before it.

Experiments:
[1] = system: MOLT-4; test: Antiproliferative activity against human MOLT-4 cells assessed as reduction in cell viability incubated for 72 hrs by CellTiter-Glo Luminescent assay; type: functional, cell-based; conditions: MOLT-4, 72 h
[2] = biological target: T1, Protein cereblon/Wee1-like protein kinase (Homo sapiens) (UniProt P30291+Q96SW2); test: PROTAC activity at CRBN/Wee1 in human MV4-11 cells assessed as maximal degradation of Wee1 at 100 nM measured after 2 hrs by Western blot analysis relative to control; type: cell-based
T1 sequence (P30291 whole entry, looked up): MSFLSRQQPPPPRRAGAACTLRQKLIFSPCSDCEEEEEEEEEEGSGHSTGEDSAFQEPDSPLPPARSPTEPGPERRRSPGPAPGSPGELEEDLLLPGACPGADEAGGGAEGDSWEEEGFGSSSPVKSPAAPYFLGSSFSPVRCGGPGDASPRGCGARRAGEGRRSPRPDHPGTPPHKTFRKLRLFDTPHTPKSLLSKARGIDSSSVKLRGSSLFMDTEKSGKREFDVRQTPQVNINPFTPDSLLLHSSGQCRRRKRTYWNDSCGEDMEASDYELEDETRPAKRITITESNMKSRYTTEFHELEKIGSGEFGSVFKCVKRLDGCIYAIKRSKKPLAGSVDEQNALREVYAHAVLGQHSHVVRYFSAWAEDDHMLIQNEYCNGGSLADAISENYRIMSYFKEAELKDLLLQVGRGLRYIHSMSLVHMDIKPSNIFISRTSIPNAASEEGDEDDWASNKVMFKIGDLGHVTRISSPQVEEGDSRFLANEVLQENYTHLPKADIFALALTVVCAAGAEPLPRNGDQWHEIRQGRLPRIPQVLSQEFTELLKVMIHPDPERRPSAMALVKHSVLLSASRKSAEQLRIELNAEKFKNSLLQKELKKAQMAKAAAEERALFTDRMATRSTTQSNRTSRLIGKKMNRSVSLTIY
T1 sequence (Q96SW2 whole entry, looked up): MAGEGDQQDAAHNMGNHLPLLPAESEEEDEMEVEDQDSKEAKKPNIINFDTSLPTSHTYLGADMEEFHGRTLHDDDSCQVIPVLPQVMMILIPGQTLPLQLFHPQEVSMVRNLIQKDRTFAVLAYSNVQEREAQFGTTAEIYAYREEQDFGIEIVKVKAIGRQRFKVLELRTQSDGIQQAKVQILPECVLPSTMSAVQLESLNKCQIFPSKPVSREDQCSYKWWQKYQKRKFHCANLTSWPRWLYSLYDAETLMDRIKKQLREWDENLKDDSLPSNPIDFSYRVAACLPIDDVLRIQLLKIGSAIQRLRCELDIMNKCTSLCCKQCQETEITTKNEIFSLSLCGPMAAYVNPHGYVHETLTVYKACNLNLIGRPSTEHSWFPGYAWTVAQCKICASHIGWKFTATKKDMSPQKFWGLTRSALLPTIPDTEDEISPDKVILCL

[3] = biological target: T2, von Hippel-Lindau disease tumor suppressor/SWI/SNF-related matrix-associated actin-dependent regulator of chromatin subfamily A member 2 (Homo sapiens, UniProt P51531+P40337); test: PROTAC activity at VHL/SMARCA2 in human MV4-11 cells assessed as induction of SMARCA2 degradation at 10 uM by measuring maximal efficacy incubated for 20 hrs by Western blotting analysis relative to control; type: cell-based
Target sequence in this assay (P40337 whole entry, looked up): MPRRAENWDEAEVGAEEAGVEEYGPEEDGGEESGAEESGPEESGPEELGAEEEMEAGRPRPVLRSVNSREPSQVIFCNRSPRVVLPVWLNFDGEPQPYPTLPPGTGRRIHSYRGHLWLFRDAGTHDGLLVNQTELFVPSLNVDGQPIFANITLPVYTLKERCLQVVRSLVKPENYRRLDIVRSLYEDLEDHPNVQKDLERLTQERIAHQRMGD
Target sequence in this assay (P51531 whole entry, looked up): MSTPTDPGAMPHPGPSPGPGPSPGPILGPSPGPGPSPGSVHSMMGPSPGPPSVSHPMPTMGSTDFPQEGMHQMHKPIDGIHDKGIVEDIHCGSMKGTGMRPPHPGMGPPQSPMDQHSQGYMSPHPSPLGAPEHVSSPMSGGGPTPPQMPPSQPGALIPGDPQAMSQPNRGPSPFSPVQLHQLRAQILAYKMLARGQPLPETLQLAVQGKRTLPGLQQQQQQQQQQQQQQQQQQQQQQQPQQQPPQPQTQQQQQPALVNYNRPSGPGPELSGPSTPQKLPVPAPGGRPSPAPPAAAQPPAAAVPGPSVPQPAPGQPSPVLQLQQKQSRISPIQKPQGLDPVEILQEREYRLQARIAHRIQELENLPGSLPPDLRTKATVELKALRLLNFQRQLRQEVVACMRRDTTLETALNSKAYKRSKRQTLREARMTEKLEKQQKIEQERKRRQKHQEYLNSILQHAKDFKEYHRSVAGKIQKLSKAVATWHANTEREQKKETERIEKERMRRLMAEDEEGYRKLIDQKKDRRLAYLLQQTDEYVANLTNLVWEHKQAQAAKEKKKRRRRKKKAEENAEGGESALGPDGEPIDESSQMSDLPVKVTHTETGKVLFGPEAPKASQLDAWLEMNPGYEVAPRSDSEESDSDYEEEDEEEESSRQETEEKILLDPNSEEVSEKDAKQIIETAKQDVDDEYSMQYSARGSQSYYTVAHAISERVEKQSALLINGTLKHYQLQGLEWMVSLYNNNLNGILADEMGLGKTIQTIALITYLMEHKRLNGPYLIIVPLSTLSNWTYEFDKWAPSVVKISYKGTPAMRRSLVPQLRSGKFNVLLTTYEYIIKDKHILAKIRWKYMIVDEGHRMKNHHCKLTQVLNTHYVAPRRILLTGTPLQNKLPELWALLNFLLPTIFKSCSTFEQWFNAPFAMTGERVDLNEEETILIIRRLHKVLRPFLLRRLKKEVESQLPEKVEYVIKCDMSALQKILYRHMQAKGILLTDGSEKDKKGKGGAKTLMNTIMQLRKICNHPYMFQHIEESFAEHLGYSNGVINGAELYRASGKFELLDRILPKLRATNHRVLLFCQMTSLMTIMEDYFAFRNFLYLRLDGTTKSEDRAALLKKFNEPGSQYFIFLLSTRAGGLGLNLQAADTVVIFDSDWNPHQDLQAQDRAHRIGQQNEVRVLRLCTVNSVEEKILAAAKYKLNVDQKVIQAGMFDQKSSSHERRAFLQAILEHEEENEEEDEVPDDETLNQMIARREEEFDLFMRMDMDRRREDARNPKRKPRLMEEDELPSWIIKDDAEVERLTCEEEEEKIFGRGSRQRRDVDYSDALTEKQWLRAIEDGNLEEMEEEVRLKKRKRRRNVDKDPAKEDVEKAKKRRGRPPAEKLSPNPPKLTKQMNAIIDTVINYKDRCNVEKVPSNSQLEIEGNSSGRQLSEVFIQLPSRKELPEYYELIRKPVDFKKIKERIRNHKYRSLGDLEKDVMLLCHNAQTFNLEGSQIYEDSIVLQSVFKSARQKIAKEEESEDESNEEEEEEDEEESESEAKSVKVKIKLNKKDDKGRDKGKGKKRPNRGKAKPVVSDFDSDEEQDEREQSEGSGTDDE

[4] = biological target: T1, Protein cereblon/Wee1-like protein kinase (Homo sapiens); test: PROTAC activity at CRBN/Wee1 in human MV4-11 cells assessed as maximal degradation of Wee1 at 1 uM measured after 2 hrs by Western blot analysis relative to control; type: cell-based
[5] = biological target: Protein cereblon/Cyclin-dependent kinase 12 (Homo sapiens) (UniProt Q9NYV4+Q96SW2); test: PROTAC activity at CRBN/CDK12 in human HeLa cells assessed as maximal degradation of CDK12 at 1 uM measured after 24 hrs by Western blot analysis relative to control; type: cell-based
[6] = biological target: T3, von Hippel-Lindau disease tumor suppressor/SWI/SNF-related matrix-associated actin-dependent regulator of chromatin subfamily A member 4 (Homo sapiens, UniProt P51532+P40337); test: PROTAC activity at VHL/SMARCA4 in human RKO cells assessed as maximal degradation of SMARCA4 at 10 nM relative to control; type: cell-based
Target sequence in this assay (P40337 whole entry, looked up): as the sequence (P40337 whole entry, looked up) above
Target sequence in this assay (P51532 whole entry, looked up): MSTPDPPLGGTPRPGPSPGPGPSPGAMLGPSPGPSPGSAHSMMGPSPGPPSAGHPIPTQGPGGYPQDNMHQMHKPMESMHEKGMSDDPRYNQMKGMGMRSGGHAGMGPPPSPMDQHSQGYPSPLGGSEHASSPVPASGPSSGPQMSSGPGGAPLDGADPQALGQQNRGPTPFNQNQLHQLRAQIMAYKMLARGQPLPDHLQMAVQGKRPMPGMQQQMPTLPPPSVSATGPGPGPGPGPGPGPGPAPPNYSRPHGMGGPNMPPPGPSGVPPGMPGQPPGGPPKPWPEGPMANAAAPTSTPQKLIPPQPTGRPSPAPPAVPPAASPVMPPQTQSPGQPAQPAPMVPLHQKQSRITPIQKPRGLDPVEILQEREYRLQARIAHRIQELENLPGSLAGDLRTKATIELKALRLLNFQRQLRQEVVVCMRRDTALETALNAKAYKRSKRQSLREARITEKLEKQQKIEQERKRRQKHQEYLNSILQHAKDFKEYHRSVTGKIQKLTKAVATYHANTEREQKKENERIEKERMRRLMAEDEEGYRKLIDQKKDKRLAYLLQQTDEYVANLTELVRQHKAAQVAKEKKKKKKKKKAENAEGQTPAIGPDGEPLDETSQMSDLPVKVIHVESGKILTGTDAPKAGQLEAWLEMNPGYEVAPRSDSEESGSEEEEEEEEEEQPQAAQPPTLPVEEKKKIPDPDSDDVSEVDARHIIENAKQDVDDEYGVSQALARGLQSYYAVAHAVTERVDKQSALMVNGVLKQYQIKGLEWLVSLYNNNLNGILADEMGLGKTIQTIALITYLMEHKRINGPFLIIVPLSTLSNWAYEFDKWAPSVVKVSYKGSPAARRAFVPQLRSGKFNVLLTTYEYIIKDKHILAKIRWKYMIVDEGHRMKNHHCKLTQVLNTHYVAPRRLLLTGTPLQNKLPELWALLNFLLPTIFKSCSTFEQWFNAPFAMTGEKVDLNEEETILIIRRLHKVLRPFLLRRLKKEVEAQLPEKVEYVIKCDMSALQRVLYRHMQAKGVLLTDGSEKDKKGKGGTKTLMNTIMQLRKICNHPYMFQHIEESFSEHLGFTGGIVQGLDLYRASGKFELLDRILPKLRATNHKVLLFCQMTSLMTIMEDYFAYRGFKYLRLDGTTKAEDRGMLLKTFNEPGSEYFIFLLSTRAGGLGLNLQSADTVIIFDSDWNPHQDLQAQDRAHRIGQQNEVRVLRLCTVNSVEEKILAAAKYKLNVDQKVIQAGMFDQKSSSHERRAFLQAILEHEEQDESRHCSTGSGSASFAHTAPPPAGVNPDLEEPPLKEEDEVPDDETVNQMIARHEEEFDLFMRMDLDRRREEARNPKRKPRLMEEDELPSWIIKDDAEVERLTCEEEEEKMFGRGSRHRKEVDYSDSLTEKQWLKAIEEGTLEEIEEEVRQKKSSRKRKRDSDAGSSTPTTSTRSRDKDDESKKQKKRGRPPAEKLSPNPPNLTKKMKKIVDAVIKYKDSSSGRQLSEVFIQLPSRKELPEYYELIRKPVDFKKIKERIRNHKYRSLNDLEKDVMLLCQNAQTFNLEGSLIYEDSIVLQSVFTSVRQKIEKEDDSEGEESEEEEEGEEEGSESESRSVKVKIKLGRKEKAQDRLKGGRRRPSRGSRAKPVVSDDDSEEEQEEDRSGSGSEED

[7] = biological target: T3, von Hippel-Lindau disease tumor suppressor/SWI/SNF-related matrix-associated actin-dependent regulator of chromatin subfamily A member 4; test: PROTAC activity at VHL/SMARCA4 in human RKO cells assessed as degradation of SMARCA4; type: cell-based
Target sequence in this assay (P51532 whole entry): as the sequence (P51532 whole entry, looked up) above
Target sequence in this assay (P40337 whole entry): as the sequence (P40337 whole entry, looked up) above

[8] = system: MV4-11; test: Antitumor activity against human MV4-11 cells xenografted in BALB/c nude mouse assessed as tumor growth inhibition at 25 mg/kg, po administered once daily for 17 days relative to control; type: functional; conditions: MV4-11, 408 h, time 17 day, read-out: TGI
[9] = biological target: Protein cereblon/Bromodomain-containing protein 2 (Homo sapiens) (UniProt P25440+Q96SW2); test: PROTAC activity at CRBN/BRD2 in human MV4-11 cells assessed as maximal degradation of BRD2 protein level at 0.5 uM incubated for 4 hrs by Western blotting assay relative to control; type: cell-based
[10] = system: LoVo; test: Antitumor activity against human LoVo cells xenografted in BALB/c mouse assessed as tumor growth inhibition at 50 mg/kg, ip administered once daily for 14 days relative to control; type: functional; conditions: 336 h, time 14 day, read-out: TGI
[11] = system: LoVo; test: Antitumor activity against human LoVo cells xenografted in BALB/c mouse assessed as tumor growth inhibition at 25 mg/kg, ip administered once daily for 14 days relative to control; type: functional; conditions: 336 h, time 14 day, read-out: TGI
[12] = biological target: T4, von Hippel-Lindau disease tumor suppressor/Serine/threonine-protein kinase ATR (Homo sapiens) (UniProt Q13535+P40337); test: PROTAC activity at […]/VHL in […] human HCT-116 cells assessed as maximum protein degradation at 5 uM measured after 24 hrs by immunoblot analysis relative to control; type: cell-based
[13] = biological target: T4, von Hippel-Lindau disease tumor suppressor/Serine/threonine-protein kinase ATR (Homo sapiens); test: PROTAC activity at […]/VHL in human LoVo cells assessed as maximum protein degradation at 5 uM measured after 24 hrs by immunoblot analysis relative to control; type: cell-based
[14] = biological target: Protein cereblon/Poly [ADP-ribose] polymerase 1 (Homo sapiens, UniProt P09874+Q96SW2); test: PROTAC activity at CRBN/PARP1 in human SW620 cells assessed as degradation of PARP1 measured after 24 hrs by Western blot analysis; type: cell-based
[15] = biological target: T2, von Hippel-Lindau disease tumor suppressor/SWI/SNF-related matrix-associated actin-dependent regulator of chromatin subfamily A member 2; test: PROTAC activity at VHL/SMARCA2 in human RKO cells assessed as degradation of SMARCA2 incubated for 18 hrs by Western blot analysis; type: cell-based
Target sequence in this assay (P51531 whole entry): as the sequence (P51531 whole entry, looked up) above
Target sequence in this assay (P40337 whole entry): as the sequence (P40337 whole entry, looked up) above

IC50 [1]: 390 nM
Emax [2]: 50%
Structure (SMILES): C=CCn1c(=O)c2cnc(Nc3ccc(N4CCN(CCCNc5cccc6c5C(=O)N(C5CCC(=O)NC5=O)C6=O)CC4)cc3)nc2n1-c1cccc(C(C)(C)O)n1 (configuration not stated)

Emax [3]: > 95%
Structure (SMILES): COc1ccc(C(=O)/C=C/C(=O)N2CCN(c3cc(-c4ccccc4O)nnc3N)CC2)cc1

Emax [4]: > 70%
Structure (SMILES): C=CCn1c(=O)c2cnc(Nc3ccc(N4CCN(CCCC(=O)N[C@H](C(=O)N5C[C@H](O)C[C@H]5C(=O)NCc5ccc(-c6scnc6C)cc5)C(C)(C)C)CC4)cc3)nc2n1-c1cccc(C(C)(C)O)n1

IC50 [1]: 800 nM
Structure (SMILES): C=CCn1c(=O)c2cnc(Nc3ccc(N4CCN(C)CC4)cc3)nc2n1-c1cccc(C(C)(C)O)n1 [ADAVOSERTIB]

Emax [5]: > 80%
Structure (SMILES): C=CCn1c(=O)c2cnc(Nc3ccc(N4CCN(CCCC(=O)NCCOCCOCCNc5cccc6c5C(=O)N(C5CCC(=O)NC5=O)C6=O)CC4)cc3)nc2n1-c1cccc(C(C)(C)O)n1 (configuration not stated)

Emax [6]: 46%
DC50 [7]: 78 nM
Structure (SMILES): Cc1ncsc1-c1ccc(CNC(=O)[C@@H]2C[C@@H](O)CN2C(=O)[C@@H](NC(=O)C2(F)CC2)C(C)(C)C)c(OCCCN2CCC(c3ccc4c(c3)n(C3CCCC3)c3nc(=O)c5c(Br)cccc5n43)CC2)c1

Emax [9]: > 50%
Structure (SMILES): Nc1ncc(-c2ccc(C(=O)N3CCN(CCCCC(=O)Nc4cccc5c4C(=O)N(C4CCC(=O)NC4=O)C5=O)CC3)cc2)nc1C(=O)Nc1ccccc1 (configuration not stated)
inhibition in vivo at 25 mg/kg [8]: 57%

Emax [12]: > 80%
Emax [13]: > 80%
Structure (SMILES): C[C@H]1COCCN1c1cc(C2([S@](C)(=O)=NC(=O)CCc3cn(CCCCCCCC(=O)Nc4cccc5c4C(=O)N(C4CCC(=O)NC4=O)C5=O)nn3)CC2)nc(-c2ccnc3[nH]ccc23)n1 (some centres not stated)
inhibition in vivo at 50 mg/kg [10]: 51.8%
inhibition in vivo at 25 mg/kg [11]: 35.9%

DC50 [14]: 5400 nM
Structure (SMILES): O=C(CCCCCCCCCCC(=O)c1cc(Cc2n[nH]c(=O)c3ccccc23)ccc1F)Cc1cccc2c1CN(C1CCC(=O)NC1=O)C2=O (configuration not stated)

DC50 [15]: 2 nM
Emax [6]: 77%
Structure (SMILES): Cc1ncsc1-c1ccc([C@@H](CCCN2CCC(c3ccc4c(c3)n(C3CCCC3)c3nc(=O)c5c(Br)cccc5n43)CC2)NC(=O)[C@@H]2C[C@@H](O)CN2C(=O)[C@@H](NC(=O)C2(F)CC2)C(C)(C)C)cc1
